Key:
Format in all cases: cell-based, human
MDAH-2774 = assay: XTT cell proliferation assay (cytotoxicity)
Description: (§1) Cells were seeded at 7×10^3 per well in 96-well culture plates before treatment with different concentrations of protoapigenone for 12, 24 and/or 48 hours. Next, the cytotoxicity of protoapigenone was determined using XTT cell proliferation assay (Sigma, St. Louis, Mo.). The absorbance of wavelength at 490 nm (OD490) and 650 nm (OD650) were determined respectively by enzyme-linked immunosorbent assay (ELISA) reader, and 50% of inhibitory concentration (IC50) was calculated by the value of OD490-OD650. In addition, in order to evaluate the long-term effect, the cells were treated with different concentration of protoapigenone for 3 hours, then were incubated with fresh medium for 14 days so as to form colonies. Finally, the cells were stained with crystal violet and were observed under the microscope.

LNCap cells [1] = assay: Cell cycle analysis (PI flow cytometry); details: inhibitor pretreatment
Description: The ovarian cancer cells and the prostate cancer cells respectively were treated with protoapigenone at different concentrations (0, 2.5, 5 and 10 μM) for 24 hours and 6 hours (or 12 hours). These cells were harvested by trypsin and fixed with 70% ethanol for 1 hour, washed with phosphate buffered saline (PBS) twice, and resuspended in propidium iodide (PI)/RNase A solution for 30 minutes. In accordance with the mechanism of DNA stained with propidium iodide, the cell cycle and sub-G1 distribution were detected by the FACScan flow cytometry (Becton Dickinson, San Jose, Calif.), and data analysis was done with CellQuest software (BD Bioscience).

LNCap cells [2] = assay: Protoapigenone-induced apoptosis with kinase inhibitor pretreatment
Description: Human prostate cancer cell line LNCap used in the present invention was purchased from ATCC, Manassas, Va. and was cultured in RPMI 1640 medium supplemented with 10% FBS and penicillin/streptomycin/amphotericin B. LNCap cells were treated with 2.5, 5 and 10 μM protoapigenone respectively and were analyzed. In some experiments, LNCap cells were treated with p38 mitogen-activated protein kinase (MAPK) inhibitor SB203580 or c-Jun NH2-terminal kinase (JNK) ½ inhibitor SP600125 for one hour before protoapigenone treatment.

p38 MAPK = assay: Immunoblotting, phosphorylation in LNCap cells; details: LNCap pretreated 1 hour with inhibitor, then protoapigenone 1 hour
Description: The concentration of protein supernatant was further determined using the Bio-Rad protein assay kit (Bio-Rad Laboratories, Hercules, Calif.). Whole cell lysates were separated on polyacrylamide sodium dodecyl sulfate (SDS) gels and the proteins were transferred onto the nitrocellulose membrane. Proteins were detected sequentially by the specific primary antibodies, followed by peroxidase-conjugated secondary antibodies, and visualized by the Enhanced chemiluminescence detection system (Amersham, N.J.).

LNCap = assay: XTT cell proliferation assay (growth inhibition); details: inhibitor pretreatment, then protoapigenone for 12 hours
Description: as §1

Structure (SMILES) | inhibition of cell growth (MDAH-2774; MDAH-2774, 5 μM cisplatin) [%] | inhibition of cell growth (MDAH-2774; MDAH-2774, 10 μM cisplatin) [%] | effect of inhibitor on protoapigenone-induced S and G2/M phases arrest (LNCap cells [1]) | protoapigenone-induced apoptotic percentage in presence of inhibitor (LNCap cells [2]) | protoapigenone-induced phosphorylation (activation) of p38 MAPK in presence of inhibitor (p38 MAPK) | survival rate of LNCap cells vs cells only treated with protoapigenone (LNCap)
N.N.[Cl][Pt][Cl] [cisplatin, cis-diamminedichloridoplatinum (II), reference compound] | 28.48 | 36.91 | – | – | – | –
C[S+]([O-])c1ccc(-c2nc(-c3ccncc3)c(-c3ccc(F)cc3)[nH]2)cc1 (stereo not drawn) [SB203580, reference compound] | – | – | significantly attenuates | decreased | blocked | higher
